# Experimental data: PubChem BioAssay (NCI)
#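 Cells were grown in 96-well plates and exposed to each compound for 48 hours at five concentrations; endpoints were interpolated linearly between bracketing concentrations, or set to the highest concentration if not reached. GI50 marks 50% less growth. Definition used: TGI = concentration required for complete inhibition of growth.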
# How the values were obtained:
# Assay in all cases: DTP human tumour cell line panel, 48 h
# 786-0 renal = test system: 786-0 renal
# A498 renal = test system: A498 renal
# A549 NSCLC = test system: A549 NSCLC
# ACHN renal = test system: ACHN renal
# BT-549 breast = test system: BT-549 breast
# CAKI-1 renal = test system: CAKI-1 renal
# CCRF-CEM leukemia = test system: CCRF-CEM leukemia
# COLO 205 colon = test system: COLO 205 colon
# DU-145 prostate = test system: DU-145 prostate
# EKVX NSCLC = test system: EKVX NSCLC
# HCC-2998 colon = test system: HCC-2998 colon
# HCT-116 colon = test system: HCT-116 colon
# HCT-15 colon = test system: HCT-15 colon
# HL-60(TB) leukemia = test system: HL-60(TB) leukemia
# HOP-62 NSCLC = test system: HOP-62 NSCLC
# HOP-92 NSCLC = test system: HOP-92 NSCLC
# HS 578T breast = test system: HS 578T breast
# HT29 colon = test system: HT29 colon
# IGROV1 ovarian = test system: IGROV1 ovarian
# K-562 leukemia = test system: K-562 leukemia
# KM12 colon = test system: KM12 colon
# LOX IMVI melanoma = test system: LOX IMVI melanoma
# M14 melanoma = test system: M14 melanoma
# MALME-3M melanoma = test system: MALME-3M melanoma
# MCF7 breast = test system: MCF7 breast
# MDA-MB-231 breast = test system: MDA-MB-231 breast
# MDA-MB-435 = test system: MDA-MB-435
# MDA-MB-468 breast = test system: MDA-MB-468 breast
# MOLT-4 leukemia = test system: MOLT-4 leukemia
# NCI-H226 lung = test system: NCI-H226 lung
# NCI-H23 lung = test system: NCI-H23 lung
# NCI-H460 lung = test system: NCI-H460 lung
# NCI-H522 lung = test system: NCI-H522 lung
# NCI/ADR-RES ovarian = test system: NCI/ADR-RES ovarian
# OVCAR-3 ovarian = test system: OVCAR-3 ovarian
# OVCAR-4 ovarian = test system: OVCAR-4 ovarian
# OVCAR-5 ovarian = test system: OVCAR-5 ovarian
# OVCAR-8 ovarian = test system: OVCAR-8 ovarian
# PC-3 prostate = test system: PC-3 prostate
# RXF 393 renal = test system: RXF 393 renal
# SF-268 CNS = test system: SF-268 CNS
# SF-295 CNS = test system: SF-295 CNS
# SF-539 CNS = test system: SF-539 CNS
# SK-MEL-2 melanoma = test system: SK-MEL-2 melanoma
# SK-MEL-28 melanoma = test system: SK-MEL-28 melanoma
# SK-MEL-5 melanoma = test system: SK-MEL-5 melanoma
# SK-OV-3 ovarian = test system: SK-OV-3 ovarian
# SN12C renal = test system: SN12C renal
# SNB-19 CNS = test system: SNB-19 CNS
# SNB-75 CNS = test system: SNB-75 CNS
# SR leukemia = test system: SR leukemia
# SW-620 colon = test system: SW-620 colon
# T-47D breast = test system: T-47D breast
# TK-10 renal = test system: TK-10 renal
# U251 CNS = test system: U251 CNS
# UACC-257 melanoma = test system: UACC-257 melanoma
# UACC-62 melanoma = test system: UACC-62 melanoma
# UO-31 renal = test system: UO-31 renal
smiles,measurement,setting,value
O=C(NCCCCC(c1ccc(F)cc1)c1ccc(F)cc1)Nc1ccc([N+](=O)[O-])c(C(F)(F)F)c1,GI50,786-0 renal,2.26 µM
same,TGI,786-0 renal,8.86 µM
same,GI50,A498 renal,1.84 µM
same,TGI,A498 renal,5.51 µM
same,GI50,A549 NSCLC,3.19 µM
same,TGI,A549 NSCLC,12.6 µM
same,GI50,ACHN renal,1.63 µM
same,TGI,ACHN renal,6.81 µM
same,GI50,BT-549 breast,1.86 µM
same,TGI,BT-549 breast,4.23 µM
same,GI50,CAKI-1 renal,2.07 µM
same,TGI,CAKI-1 renal,6.5 µM
same,GI50,CCRF-CEM leukemia,0.674 µM
same,TGI,CCRF-CEM leukemia,8.27 µM
same,GI50,COLO 205 colon,1.73 µM
same,TGI,COLO 205 colon,3.24 µM
same,GI50,DU-145 prostate,3.53 µM
same,TGI,DU-145 prostate,15.7 µM
same,GI50,EKVX NSCLC,2.3 µM
same,TGI,EKVX NSCLC,8.53 µM
same,GI50,HCC-2998 colon,2.61 µM
same,TGI,HCC-2998 colon,11.5 µM
same,GI50,HCT-116 colon,0.521 µM
same,TGI,HCT-116 colon,2.81 µM
same,GI50,HCT-15 colon,1.8 µM
same,TGI,HCT-15 colon,6.63 µM
same,GI50,HL-60(TB) leukemia,3.19 µM
same,TGI,HL-60(TB) leukemia,> 100 µM
same,GI50,HOP-62 NSCLC,1.99 µM
same,TGI,HOP-62 NSCLC,4.62 µM
same,GI50,HOP-92 NSCLC,1.03 µM
same,TGI,HOP-92 NSCLC,5.11 µM
same,GI50,HS 578T breast,2.22 µM
same,TGI,HS 578T breast,6.22 µM
same,GI50,HT29 colon,3.22 µM
same,TGI,HT29 colon,13.4 µM
same,GI50,IGROV1 ovarian,2.71 µM
same,TGI,IGROV1 ovarian,12.5 µM
same,GI50,K-562 leukemia,0.561 µM
same,TGI,K-562 leukemia,> 100 µM
same,GI50,KM12 colon,2.07 µM
same,TGI,KM12 colon,7.77 µM
same,GI50,LOX IMVI melanoma,1.69 µM
same,TGI,LOX IMVI melanoma,3.37 µM
same,GI50,M14 melanoma,2.08 µM
same,TGI,M14 melanoma,6.63 µM
same,GI50,MALME-3M melanoma,1.84 µM
same,TGI,MALME-3M melanoma,4.64 µM
same,GI50,MCF7 breast,2.14 µM
same,TGI,MCF7 breast,10.1 µM
same,GI50,MDA-MB-231 breast,1.82 µM
same,TGI,MDA-MB-231 breast,3.72 µM
same,GI50,MDA-MB-435,2.15 µM
same,TGI,MDA-MB-435,7.58 µM
same,GI50,MDA-MB-468 breast,0.559 µM
same,TGI,MDA-MB-468 breast,3.08 µM
same,GI50,MOLT-4 leukemia,2.81 µM
same,TGI,MOLT-4 leukemia,> 100 µM
same,GI50,NCI-H226 lung,2.16 µM
same,TGI,NCI-H226 lung,6.55 µM
same,GI50,NCI-H23 lung,2.27 µM
same,TGI,NCI-H23 lung,8.51 µM
same,GI50,NCI-H460 lung,1.61 µM
same,TGI,NCI-H460 lung,5.54 µM
same,GI50,NCI-H522 lung,1.74 µM
same,TGI,NCI-H522 lung,5.17 µM
same,GI50,NCI/ADR-RES ovarian,2.36 µM
same,TGI,NCI/ADR-RES ovarian,8.68 µM
same,GI50,OVCAR-3 ovarian,1.52 µM
same,TGI,OVCAR-3 ovarian,5.31 µM
same,GI50,OVCAR-4 ovarian,2.81 µM
same,TGI,OVCAR-4 ovarian,15.8 µM
same,GI50,OVCAR-5 ovarian,2.28 µM
same,TGI,OVCAR-5 ovarian,7.89 µM
same,GI50,OVCAR-8 ovarian,3.24 µM
same,TGI,OVCAR-8 ovarian,16 µM
same,GI50,PC-3 prostate,0.415 µM
same,TGI,PC-3 prostate,8.72 µM
same,GI50,RXF 393 renal,2.23 µM
same,TGI,RXF 393 renal,6.25 µM
same,GI50,SF-268 CNS,2.92 µM
same,TGI,SF-268 CNS,12.4 µM
same,GI50,SF-295 CNS,0.972 µM
same,TGI,SF-295 CNS,3.73 µM
same,GI50,SF-539 CNS,1.92 µM
same,TGI,SF-539 CNS,4.01 µM
same,GI50,SK-MEL-2 melanoma,1.92 µM
same,TGI,SK-MEL-2 melanoma,4.07 µM
same,GI50,SK-MEL-28 melanoma,3.03 µM
same,TGI,SK-MEL-28 melanoma,11.5 µM
same,GI50,SK-MEL-5 melanoma,1.59 µM
same,TGI,SK-MEL-5 melanoma,2.97 µM
same,GI50,SK-OV-3 ovarian,2.26 µM
same,TGI,SK-OV-3 ovarian,6.05 µM
same,GI50,SN12C renal,1.98 µM
same,TGI,SN12C renal,6.52 µM
same,GI50,SNB-19 CNS,2.91 µM
same,TGI,SNB-19 CNS,16.1 µM
same,GI50,SNB-75 CNS,1.65 µM
same,TGI,SNB-75 CNS,7.64 µM
same,GI50,SR leukemia,2.97 µM
same,TGI,SR leukemia,> 100 µM
same,GI50,SW-620 colon,2.26 µM
same,TGI,SW-620 colon,10.9 µM
same,GI50,T-47D breast,1.85 µM
same,TGI,T-47D breast,6.93 µM
same,GI50,TK-10 renal,2.94 µM
same,TGI,TK-10 renal,10.9 µM
same,GI50,U251 CNS,2.2 µM
same,TGI,U251 CNS,5.98 µM
same,GI50,UACC-257 melanoma,2.48 µM
same,TGI,UACC-257 melanoma,7.97 µM
same,GI50,UACC-62 melanoma,1.33 µM
same,TGI,UACC-62 melanoma,2.84 µM
same,GI50,UO-31 renal,1.82 µM
same,TGI,UO-31 renal,7.43 µM
